Consider one compound from publication PMC9097471, “Development of Selective Phosphatidylinositol 5-Phosphate 4-Kinase γ Inhibitors with a Non-ATP-competitive, Allosteric Binding Mode” (Journal of Medicinal Chemistry, 2022).

The subject of one test is PI5P4Kγ. Also on record: method as in ref 30 (1), ref 23 (2). Particulars: 32P-ATP/PI5P incorporation; ref 30 (1), ref 23 (2); cited from earlier work.
The next test concerns the target T1, PI5P4Kγ+ (Homo sapiens, UniProt Q8TBX8, D138G/D197E/E133P/E135D/E153T/E196G/G136S/G139A/N195G/S132L/S134N).
T1 construct: GST (N, cleaved yes); made in house; host or cells: E. coli BL21(DE3), pGEX6P
T1 sequence (Q8TBX8 with tags, fused parts or gaps INS131LPN/S132D/E133S/S134Q/E135A/G136R/D138G/G139A/E153T/N195G/E196G/D197E): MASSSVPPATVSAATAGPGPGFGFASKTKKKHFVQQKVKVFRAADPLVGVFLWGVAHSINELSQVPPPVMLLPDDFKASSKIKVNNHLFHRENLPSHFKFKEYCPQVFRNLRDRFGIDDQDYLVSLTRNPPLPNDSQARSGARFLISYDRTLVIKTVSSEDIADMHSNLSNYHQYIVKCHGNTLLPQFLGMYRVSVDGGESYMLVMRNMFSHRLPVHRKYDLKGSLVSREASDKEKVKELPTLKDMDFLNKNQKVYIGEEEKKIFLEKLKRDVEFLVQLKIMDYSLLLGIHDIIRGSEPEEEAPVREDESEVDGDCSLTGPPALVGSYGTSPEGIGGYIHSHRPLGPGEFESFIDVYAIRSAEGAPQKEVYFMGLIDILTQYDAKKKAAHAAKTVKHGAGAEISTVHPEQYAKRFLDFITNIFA
Put plainly: ADP-Glo inhibition assay. The test is classed as biochemical. Particulars: ADP-Glo, new data; read-out: PI5P4Kγ+ IC50. The procedure: Recombinant mutant PI5P4Kγ+ was prepared essentially as described previously.[25] […] Cultures were induced with 0.4 mM IPTG and probe sonicated in the presence of protease inhibitors. The GST fusion protein of PI5P4Kγ+ was harvested by binding to glutathione sepharose beads (Cytiva) and cleaved in situ with 50U of PreScission protease (Cytiva) for 4 h at 4 °C. The cleaved protein was further purified by size-exclusion chromatography (AKTA Pure, Cytiva). The protein purity was confirmed by sodium dodecyl sulphate–polyacrylamide gel electrophoresis, and the concentration was determined by colorimetric assay (Bio-Rad).
(§1) Statistical analysis was performed using nonparametric testing in Prism 8 (GraphPad). Activity pIC50 values and in vivo binding pEC50 values were estimated using a 4-parameter fit (Dotmatics).
In general terms: ADP-Glo first removes unused ATP, then detects ADP through luciferase.

The target of the next test is T2, PI5P4Kβ (Homo sapiens, UniProt P78356).
T2 sequence (P78356 1-416): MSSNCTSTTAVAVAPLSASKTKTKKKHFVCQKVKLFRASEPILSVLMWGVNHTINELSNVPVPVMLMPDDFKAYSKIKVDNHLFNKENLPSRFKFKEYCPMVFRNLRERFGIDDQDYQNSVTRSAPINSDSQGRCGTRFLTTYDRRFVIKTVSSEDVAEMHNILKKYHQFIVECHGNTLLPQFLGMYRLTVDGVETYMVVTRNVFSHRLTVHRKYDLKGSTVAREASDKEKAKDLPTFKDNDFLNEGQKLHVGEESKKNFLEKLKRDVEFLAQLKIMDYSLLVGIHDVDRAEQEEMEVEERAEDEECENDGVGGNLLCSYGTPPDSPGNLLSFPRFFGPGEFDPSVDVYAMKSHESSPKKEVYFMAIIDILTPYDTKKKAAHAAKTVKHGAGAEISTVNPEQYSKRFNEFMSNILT
Also on record: method as in ref 23 (a number printed in a supplementary file, which may have a reference list of its own: not looked up in the article's list). To be noted: KINOMEscan @ 10 μM; cited from earlier work.

Another test addresses T3, PI5P4Kβ-WT (Homo sapiens, UniProt P78356).
T3 sequence (P78356 1-416): T2 sequence (P78356 1-416)
Kind of test: ADP-Glo inhibition assay.

In the next test the target is T4, PI5P4Kα-WT (Homo sapiens, UniProt P48426).
T4 sequence (P48426 1-406): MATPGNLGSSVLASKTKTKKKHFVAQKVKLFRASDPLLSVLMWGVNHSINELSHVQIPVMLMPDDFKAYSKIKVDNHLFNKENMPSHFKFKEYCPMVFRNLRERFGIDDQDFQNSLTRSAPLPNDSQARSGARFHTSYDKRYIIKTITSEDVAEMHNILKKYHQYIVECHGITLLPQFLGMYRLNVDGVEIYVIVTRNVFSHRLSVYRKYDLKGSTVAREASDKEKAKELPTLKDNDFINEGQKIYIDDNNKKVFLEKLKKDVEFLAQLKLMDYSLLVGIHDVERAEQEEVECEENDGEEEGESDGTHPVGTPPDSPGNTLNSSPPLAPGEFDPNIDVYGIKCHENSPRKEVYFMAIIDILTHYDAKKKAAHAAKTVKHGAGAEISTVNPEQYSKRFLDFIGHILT
Put plainly: ADP-Glo inhibition assay.

The test system of a further test is PI5P4Kα. Also on record: method as in ref 23 (a number printed in a supplementary file, which may have a reference list of its own: not looked up in the article's list). To be noted: KINOMEscan @ 10 μM; cited from earlier work.
A further test concerns the target T5, PI5P4Kγ-WT (Homo sapiens, UniProt Q8TBX8).
T5 sequence (Q8TBX8 1-421): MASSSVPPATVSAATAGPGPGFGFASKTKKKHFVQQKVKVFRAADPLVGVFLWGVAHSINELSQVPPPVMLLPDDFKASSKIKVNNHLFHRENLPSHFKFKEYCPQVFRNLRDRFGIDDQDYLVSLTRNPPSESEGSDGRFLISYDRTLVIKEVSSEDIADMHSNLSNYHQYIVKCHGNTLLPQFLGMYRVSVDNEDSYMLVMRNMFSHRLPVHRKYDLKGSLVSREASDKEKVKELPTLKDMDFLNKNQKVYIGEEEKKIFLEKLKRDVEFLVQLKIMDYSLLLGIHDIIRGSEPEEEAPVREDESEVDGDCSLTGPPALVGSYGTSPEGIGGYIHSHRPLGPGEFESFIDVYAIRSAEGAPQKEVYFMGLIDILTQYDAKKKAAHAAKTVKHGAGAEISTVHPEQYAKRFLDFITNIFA
Kind of test: InCell Pulse cellular target engagement (thermal stabilisation) in HEK293 cells. It is filed as cell-based. Particulars: InCell Pulse, new data. How it is done: The binding of compounds to PI5P4Kγ in intact cells was assessed using an InCell Pulse thermal stabilisation assay (DiscoverX). […] The plate was then incubated for 60 min in the dark prior to luminescence reading using a Pherastar FSX plate reader (BMG Labtech).
as §1

Source text for PI5P4Kα-WT: (§2) To enable direct comparisons, Promega’s ADP-Glo reporter assay was developed using a mutant form of the kinase. […] To mitigate concerns about being misled by the use of the PI5P4Kγ+ construct and the possible introduction of PI5P4Kα activity into the molecules, our screening cascade included the measurement of ADP-Glo activity at PI5P4Kα-WT (and PI5P4Kβ-WT to fully understand emerging selectivity profiles).
Source text for PI5P4Kβ-WT: as §2

For the compound `Cn1nnnc1Sc1ncnc2scc(-c3cccc(S(C)(=O)=O)c3)c12` [Compound 2, NCT-504], the IC50 in the test on PI5P4Kγ was 16 µM; on PI5P4Kγ+ it was greater than 50 µM; at PI5P4Kβ-WT, greater than 25 µM; against PI5P4Kα-WT, 2 µM; against PI5P4Kγ-WT it was greater than 50 µM. For the same compound, the PI5P4Kβ % inh at PI5P4Kβ is given as <65% inh @ 10 uM (KINONMEscan). Moreover, in the test on PI5P4Kα, the PI5P4Kα % inh is given as <35% inh @ 10 uM (KINONMEscan).

The IC50 is the concentration needed to halve the response being measured.
